Earlier results on five compounds are cited in patent US20230046278A1, “METHOD FOR COLOURING KERATIN MATERIAL, COMPRISING THE USE OF AN ORGANIC C1-C6 ALKOXYSILANE AND TWO STRUCTURALLY DIFFERENT CELLULOSE TYPES” (Henkel AG & Co. KGaA, priority 2019, published 2023).

SMILES strings stand for the structures. ≈ marks a conversion by molar mass, not a printed value.

For this data set the following is noted: 25° C.

Turning to `CCN(Cc1cccc(S(=O)(=O)O)c1)c1ccc(C(=C2C=CC(=[N+](CC)Cc3cccc(S(=O)(=O)O)c3)C=C2)c2ccccc2S(=O)(=O)[O-])cc1` [Acid Blue 9], the water solubility entry is “greater than 20 % by weight”.

Consider `O=S(=O)(O)c1ccc(N=Nc2c(O)ccc3ccccc23)cc1` [Acid Orange 7, 4-[(2-hydroxy-1-naphthyl)azo]benzenesulfonate], for which the solubility in water result is reported as “more than 7 g/L”.

In the case of `Nc1cc(S(=O)(=O)O)cc2cc(S(=O)(=O)O)c(N=Nc3ccccc3)c(O)c12` [Acid Red 33, 5-amino-4-hydroxy-3-(phenylazo)-naphthalene-2,7-disulphonate], the solubility in water is 2500 µg/mL (≈ 5.9 mM). For `O=[N+]([O-])c1cc([N+](=O)[O-])c2ccc(S(=O)(=O)O)cc2c1O` [Acid Yellow 9, 8-hydroxy-5,7-dinitro-2-naphthalenesulfonic acid], the solubility in water entry is given as “above 40 g/L”.

Turning to `O=C(O)C1=NN(c2ccc(S(=O)(=O)O)cc2)C(=O)C1N=Nc1ccc(S(=O)(=O)O)cc1` (centres unmarked) [Acid Yellow 23, 4,5-dihydro-5-oxo-1-(4-sulfophenyl)-4-((4-sulfophenyl)azo)-1H-pyrazole-3-carboxylic acid], the “solubility in water (in words)” value is listed as “readily soluble”.
